Source: ChEMBL document CHEMBL3861969, “Acredinone C and the Effect of Acredinones on Osteoclastogenic and Osteoblastogenic Activity” (J Nat Prod, 2016)
Activity calls are given as the source filed them. No cut-off for these calls is given here.

How the values were obtained:
[1] = tested on: C2C12; assay: Induction of osteoblast differentiation in mouse C2C12 cells assessed as increase in BMP2-induced ALP activity preincubated with cells after 3 days using p-nitrophenyl phosphate as substrate; type: functional, cell-based
[2] = Inhibition of RANKL-induced c-Fos expression in mouse BMDM cells assessed as ratio of c-Fos to actin at 10 uM preincubated with cells followed RANKL/M-CSF addition measured after 1 day by Western blot analysis (reference value: 6.4); type: functional
[3] = tested on: BMDM; assay: Inhibition of RANKL-induced NFATc1 mRNA expression in mouse BMDM cells at 10 uM preincubated with cells followed by RANKL addition measured after 2 days by real-time PCR analysis; type: functional, cell-based
[4] = target: T1, SMAD1/5/9 (Mus musculus) (UniProt P70340+P97454+Q9JIW5); assay: Increase in BMP2-induced Smad1/5/8 nuclear translocation in mouse C2C12 cells assessed as ratio of Smad1/5/8 to lamin B1 in nuclear fraction at 10 uM preincubated with cells followed by BMP2 addition for 4 hrs by Western blot analysis (reference value: 1.5); type: cell-based
[5] = tested on: BMDM; assay: Inhibition of RANKL-induced c-Src mRNA expression in mouse BMDM cells at 10 uM preincubated with cells followed by RANKL addition measured after 2 days by real-time PCR analysis; type: functional, cell-based
[6] = Inhibition of RANKL-induced NFATc1 expression in mouse BMDM cells assessed as ratio of NFATc1 to actin at 10 uM preincubated with cells followed RANKL/M-CSF addition measured after 1day by Western blot analysis (reference value: 281); type: functional
[7] = target: Mitogen-activated protein kinase 8 (Mus musculus) (UniProt Q91Y86); assay: Inhibition of RANKL-induced JNK1 phosphorylation in mouse BMDM cells assessed as ratio of phosphorylated JNK1 to JNK1 at 10 uM preincubated for 5 mins followed RANKL/M-CSF addition for 5 mins by Western blot analysis (reference value: 3.7); type: cell-based
[8] = species: Mus musculus; assay: Cytotoxicity against mouse C2C12 cells assessed as reduction cell viability after 3 days in presence of BMP2 by CCK-8 assay; type: toxicity, cell-based; conditions: c2c12, 72 h
[9] = target: T1, SMAD1/5/9 (Mus musculus); assay: Activation of Smad1/5/8 in mouse C2C12 cells assessed as increase in BMP2-stimulated OPN mRNA expression at 10 uM preincubated with cells followed by BMP2 addition after 3 days by real-time PCR analysis; type: cell-based
[10] = target: Mitogen-activated protein kinase 9 (Mus musculus) (UniProt Q9WTU6); assay: Inhibition of RANKL-induced JNK2 phosphorylation in mouse BMDM cells assessed as ratio of phosphorylated JNK2 to JNK2 at 10 uM preincubated for 5 mins followed RANKL/M-CSF addition for 5 mins by Western blot analysis (reference value: 5.2); type: cell-based
[11] = tested on: C2C12; assay: Increase in BMP2-induced BMP9 mRNA expression in mouse C2C12 cells at 10 uM measured on day 3 by real-time PCR analysis; type: functional, cell-based
[12] = target: MAP kinase p38 (Mus musculus) (UniProt P47811+O08911+Q9WUI1+Q9Z1B7); assay: Inhibition of RANKL-induced p38 phosphorylation in mouse BMDM cells assessed as ratio of phosphorylated p38 to p38 at 10 uM preincubated for 5 mins followed RANKL/M-CSF addition for 5 mins by Western blot analysis (reference value: 24.7); type: cell-based
[13] = tested on: C2C12; assay: Induction of BMP2-induced osteoblast differentiation in mouse C2C12 cells preincubated with cells after 3 days by […] assay; type: functional, cell-based
[14] = tested on: C2C12; assay: Increase in BMP2-induced BMP4 mRNA expression in mouse C2C12 cells at 10 uM measured on day 3 by real-time PCR analysis; type: functional, cell-based
[15] = tested on: C2C12; assay: Induction of BMP2-induced osteoblast differentiation in mouse C2C12 cells assessed as increase in ALP mRNA expression at 10 uM preincubated with cells followed by BMP2 addition measured after 3 days by real-time PCR analysis; type: functional, cell-based
[16] = target: T1, SMAD1/5/9 (Mus musculus); assay: Activation of Smad1/5/8 in mouse C2C12 cells assessed as increase in BMP2-stimulated Runx2 mRNA expression at 10 uM preincubated with cells followed by BMP2 addition after 3 days by real-time PCR analysis; type: cell-based
[17] = tested on: BMDM; assay: Inhibition of RANKL-induced TRAP mRNA expression in mouse BMDM cells at 10 uM preincubated with cells followed by RANKL addition measured after 2 days by real-time PCR analysis; type: functional, cell-based
[18] = target: T1, SMAD1/5/9 (Mus musculus); assay: Activation of Smad1/5/8 in mouse C2C12 cells assessed as increase in BMP2-stimulated […] mRNA expression at 10 uM preincubated with cells followed by BMP2 addition after 3 days by real-time PCR analysis; type: cell-based
[19] = target: T1, SMAD1/5/9 (Mus musculus); assay: Increase in BMP2-induced Smad1/5/8 phosphorylation in mouse C2C12 cells assessed as ratio of phosphorylated Smad1/5/8 to Smad1/5/8 in nuclear fraction at 10 uM preincubated with cells followed by BMP2 addition for 4 hrs by Western blot analysis (reference value: 1.2); type: cell-based
[20] = target: RAC-alpha serine/threonine-protein kinase (Mus musculus) (UniProt P31750); assay: Inhibition of RANKL-induced AKT phosphorylation in mouse BMDM cells assessed as ratio of phosphorylated AKT to AKT at 10 uM preincubated for 5 mins followed RANKL/M-CSF addition for 5 mins by Western blot analysis (reference value: 2.1); type: cell-based
[21] = tested on: BMDM; assay: Inhibition of RANKL-induced mouse BMDM cell differentiation assessed as TRAP-positive MNCs at 0.1 to 10 uM preincubated for 5 mins followed by RANKL/M-CSF addition measured after 4 days by TRAP-staining based assay; type: functional
[22] = tested on: Mus musculus; assay: Osteogenic activity in ICR mouse calvarial bone implanted with collagen sponges containing 10 mM compound incubated for 2 weeks assessed as increase in bone volume relative to control; type: functional
[23] = tested on: BMDM; assay: Inhibition of RANKL-induced mouse BMDM cell differentiation assessed as TRAP-positive MNCs at 0.1 to 30 uM preincubated for 5 mins followed by RANKL/M-CSF addition measured after 4 days by TRAP-staining based assay; type: functional
[24] = tested on: Mus musculus; assay: Osteogenic activity in ICR mouse calvarial bone implanted with collagen sponges containing 10 mM compound incubated for 2 weeks assessed as increase in woven bone formation near periosteum of the calvarial bone by hematoxylin and eosin staining based assay relative to control; type: functional
[25] = target: Mitogen-activated protein kinase 1 (Mus musculus) (UniProt P63085); assay: Inhibition of RANKL-induced ERK2 phosphorylation in mouse BMDM cells assessed as ratio of phosphorylated ERK2 to ERK2 at 10 uM preincubated for 5 mins followed RANKL/M-CSF addition for 5 mins by Western blot analysis (reference value: 2.6); type: cell-based
[26] = tested on: C2C12; assay: Increase in BMP2-induced BMP7 mRNA expression in mouse C2C12 cells at 10 uM measured on day 3 by real-time PCR analysis; type: functional, cell-based
[27] = target: Mitogen-activated protein kinase 3 (Mus musculus) (UniProt Q63844); assay: Inhibition of RANKL-induced ERK1 phosphorylation in mouse BMDM cells assessed as ratio of phosphorylated ERK1 to ERK1 at 10 uM preincubated for 5 mins followed RANKL/M-CSF addition for 5 mins by Western blot analysis (reference value: 2.9); type: cell-based
[28] = tested on: C2C12; assay: Increase in BMP2-induced BMP7 protein expression in mouse C2C12 cells assessed as ratio of BMP7 to actin at 10 uM measured on day 6 by Western blot analysis (reference value: 2.4); type: functional
[29] = tested on: C2C12; assay: Increase in BMP2-induced BMP6 mRNA expression in mouse C2C12 cells at 10 uM measured on day 3 by real-time PCR analysis; type: functional, cell-based
[30] = target: T1, SMAD1/5/9 (Mus musculus); assay: Increase in BMP2-induced Smad1/5/8 nuclear translocation in mouse C2C12 cells assessed as ratio of Smad1/5/8 to actin in cytosol fraction at 10 uM preincubated with cells followed by BMP2 addition for 4 hrs by Western blot analysis (reference value: 0.4); type: cell-based
[31] = target: T2, NF-kappa-B inhibitor alpha (Mus musculus) (UniProt Q9Z1E3); assay: Inhibition of RANKL-induced IkBalpha phosphorylation in mouse BMDM cells at 10 uM preincubated for 5 mins followed RANKL/M-CSF addition for 5 mins by Western blot analysis; type: cell-based
T2 sequence (whole entry): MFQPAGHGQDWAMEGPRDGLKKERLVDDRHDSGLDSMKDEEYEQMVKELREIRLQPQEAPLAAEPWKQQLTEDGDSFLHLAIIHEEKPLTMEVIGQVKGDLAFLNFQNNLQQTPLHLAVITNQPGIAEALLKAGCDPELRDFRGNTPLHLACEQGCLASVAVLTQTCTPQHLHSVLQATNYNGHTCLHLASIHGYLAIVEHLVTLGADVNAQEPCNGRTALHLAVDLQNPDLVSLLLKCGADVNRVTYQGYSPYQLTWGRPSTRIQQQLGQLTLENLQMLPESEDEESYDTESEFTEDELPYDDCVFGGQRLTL

[32] = tested on: BMDM; assay: Inhibition of RANKL-induced cathespin K mRNA expression in mouse BMDM cells at 10 uM preincubated with cells followed by RANKL addition measured after 2 days by real-time PCR analysis; type: functional, cell-based
[33] = tested on: C2C12; assay: Increase in BMP2-induced BMP2 protein expression in mouse C2C12 cells assessed as ration of BMP2 to actin at 10 uM measured on day 3 by Western blot analysis (reference value: 1.4); type: functional
[34] = tested on: BMDM; assay: Inhibition of RANKL-induced DC-STAMP mRNA expression in mouse BMDM cells at 10 uM preincubated with cells followed by RANKL addition measured after 2 days by real-time PCR analysis; type: functional, cell-based
[35] = species: Mus musculus; assay: Cytotoxicity against mouse BMDM cells assessed as reduction in cell viability up to 10 uM after 3 days in presence of M-CSF by CCK-8 assay; type: toxicity, cell-based; conditions: 72 h
[36] = tested on: C2C12; assay: Increase in BMP2-induced BMP2 mRNA expression in mouse C2C12 cells at 10 uM measured on day 3 by real-time PCR analysis; type: functional, cell-based
[37] = tested on: Osteoclast; assay: Inhibition of RANKL-induced mouse BMDM cell differentiation assessed as reduction in TRAP-positive multi-nucleated osteoclast cells preincubated for 5 mins followed by RANKL/M-CSF addition measured after 4 days by light microscopic analysis; type: functional, cell-based
[38] = tested on: BMDM; assay: Inhibition of RANKL-induced OSCAR mRNA expression in mouse BMDM cells at 10 uM preincubated with cells followed by RANKL addition measured after 2 days by real-time PCR analysis; type: functional, cell-based
[39] = tested on: BMDM; assay: Inhibition of RANKL-induced mouse BMDM cell differentiation assessed as reduction in TRAP activity at 0.1 to 30 uM using p-nitrophenyl phosphate as substrate preincubated for 5 mins followed by RANKL/M-CSF addition measured after 4 days; type: functional, cell-based

Sequence of Mitogen-activated protein kinase 3 (Mus musculus) (Q63844 whole entry): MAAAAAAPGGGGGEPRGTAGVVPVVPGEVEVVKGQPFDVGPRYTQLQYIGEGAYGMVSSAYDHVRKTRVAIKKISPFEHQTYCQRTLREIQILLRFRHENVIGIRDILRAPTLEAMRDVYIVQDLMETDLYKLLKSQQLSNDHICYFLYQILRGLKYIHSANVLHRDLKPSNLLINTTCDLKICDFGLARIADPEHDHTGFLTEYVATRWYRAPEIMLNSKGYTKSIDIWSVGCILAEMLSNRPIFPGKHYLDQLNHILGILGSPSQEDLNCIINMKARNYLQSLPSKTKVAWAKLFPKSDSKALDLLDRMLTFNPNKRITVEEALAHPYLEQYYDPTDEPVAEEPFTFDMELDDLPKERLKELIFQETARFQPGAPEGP
Sequence of RAC-alpha serine/threonine-protein kinase (Mus musculus) (P31750 whole entry): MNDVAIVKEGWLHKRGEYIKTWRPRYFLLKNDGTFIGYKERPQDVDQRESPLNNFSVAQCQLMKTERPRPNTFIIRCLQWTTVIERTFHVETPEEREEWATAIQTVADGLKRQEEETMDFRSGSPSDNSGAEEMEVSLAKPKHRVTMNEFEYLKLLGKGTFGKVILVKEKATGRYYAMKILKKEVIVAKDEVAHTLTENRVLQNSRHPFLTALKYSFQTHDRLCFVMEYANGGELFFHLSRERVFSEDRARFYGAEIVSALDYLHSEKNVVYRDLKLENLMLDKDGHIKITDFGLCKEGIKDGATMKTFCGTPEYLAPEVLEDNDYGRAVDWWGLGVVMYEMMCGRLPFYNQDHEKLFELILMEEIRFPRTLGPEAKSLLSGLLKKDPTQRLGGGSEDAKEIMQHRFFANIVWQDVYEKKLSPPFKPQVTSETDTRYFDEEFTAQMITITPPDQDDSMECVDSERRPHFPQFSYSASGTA
Sequence of Mitogen-activated protein kinase 9 (Mus musculus) (Q9WTU6 whole entry): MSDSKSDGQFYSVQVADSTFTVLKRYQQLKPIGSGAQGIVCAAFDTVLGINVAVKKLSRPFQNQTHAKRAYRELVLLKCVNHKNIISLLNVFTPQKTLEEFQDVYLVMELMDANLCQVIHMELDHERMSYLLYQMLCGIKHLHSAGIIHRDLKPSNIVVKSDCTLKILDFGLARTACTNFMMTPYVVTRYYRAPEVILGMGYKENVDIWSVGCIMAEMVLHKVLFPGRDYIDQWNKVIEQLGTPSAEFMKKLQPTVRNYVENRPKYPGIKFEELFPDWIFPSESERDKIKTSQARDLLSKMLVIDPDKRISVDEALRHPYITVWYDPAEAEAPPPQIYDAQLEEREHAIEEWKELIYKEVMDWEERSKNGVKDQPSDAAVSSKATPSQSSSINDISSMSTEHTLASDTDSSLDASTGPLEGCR
Sequence of Mitogen-activated protein kinase 1 (Mus musculus) (P63085 whole entry): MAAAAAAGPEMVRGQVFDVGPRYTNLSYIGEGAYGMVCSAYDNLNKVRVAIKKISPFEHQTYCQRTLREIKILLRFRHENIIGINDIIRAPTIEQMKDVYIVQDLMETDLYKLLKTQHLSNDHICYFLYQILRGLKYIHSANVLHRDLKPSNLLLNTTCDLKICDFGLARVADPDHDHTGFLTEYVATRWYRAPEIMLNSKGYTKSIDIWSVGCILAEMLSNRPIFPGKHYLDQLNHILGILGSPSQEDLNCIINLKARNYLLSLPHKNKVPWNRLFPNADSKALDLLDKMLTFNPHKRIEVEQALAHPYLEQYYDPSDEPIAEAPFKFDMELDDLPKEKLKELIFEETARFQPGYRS
Sequence of Mitogen-activated protein kinase 8 (Mus musculus) (Q91Y86 whole entry): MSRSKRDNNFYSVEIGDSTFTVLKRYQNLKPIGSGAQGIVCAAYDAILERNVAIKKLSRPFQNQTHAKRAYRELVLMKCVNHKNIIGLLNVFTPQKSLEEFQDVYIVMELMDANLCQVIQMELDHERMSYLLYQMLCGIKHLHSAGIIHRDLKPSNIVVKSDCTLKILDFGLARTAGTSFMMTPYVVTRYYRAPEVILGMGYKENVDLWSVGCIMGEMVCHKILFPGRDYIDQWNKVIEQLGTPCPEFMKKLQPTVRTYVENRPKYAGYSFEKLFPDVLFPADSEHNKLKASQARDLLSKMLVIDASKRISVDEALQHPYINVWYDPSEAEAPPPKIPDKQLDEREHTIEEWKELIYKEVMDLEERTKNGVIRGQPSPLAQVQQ

fold change (FC) [4]: 2.4 | fold change (FC) [7]: 2.9 | Activity [9]: Active | fold change (FC) [10]: 4.3 | fold change (FC) [12]: 13.2 | Activity [16]: Active | Activity [18]: Active | fold change (FC) [19]: 1.7 | fold change (FC) [20]: 2 | fold change (FC) [25]: 2.8 | fold change (FC) [27]: 3.2 | fold change (FC) [30]: 0.1 | inhibition [31]: Active
Structure (SMILES): COc1cccc(OC)c1C(=O)c1c(O)cc(C)c(OC)c1C1=C(c2c(OC)cccc2OC)c2c(O)cc(C)c(OC)c2C1=O
Activity [1]: Dose-dependent effect | fold change (FC) [2]: 5.5 | inhibition [3]: Active | inhibition [5]: Active | fold change (FC) [6]: 175 | Activity [8]: Non-Toxic | Activity [11]: Active | Activity [13]: Dose-dependent effect | Activity [14]: Active | Activity [15]: Active | inhibition [17]: Active | inhibition [21]: Active | fold change (FC) [22]: 2.7 | inhibition [23]: Active | Activity [24]: Active | Activity [26]: Active | fold change (FC) [28]: 3.1 | Activity [29]: Active | inhibition [32]: Active | fold change (FC) [33]: 3.8 | inhibition [34]: Active | Activity [35]: Non-Toxic | Activity [36]: Active | inhibition [37]: Dose-dependent effect | inhibition [38]: Active | inhibition [39]: Active
